These results are taken from ChEMBL document CHEMBL3870354, “Viral Replication Inhibitors May Treat the Dengue Virus Infections” (ACS Med Chem Lett, 2017).

The test system of series [1] is dengue virus type 2. Kind of series: Antiviral activity against eGPF-labeled DENV2 16681 infected in African green monkey Vero cells measured after 3 days by fluorescence microscopic analysis. Format: functional, cell-based.
A short description of series [2]: Cytotoxicity against African green monkey Vero cells infected with eGPF-labeled DENV2 16681 assessed as reduction in cell viability measured after 3 days by ATPlite assay. The format is toxicity, cell-based. The note with it: chlorocebus sabaeus; for CC50: vero, 72 h; for CC50 at 72 h: Vero cells infected with eGFP-labeled DENV2 16681.
Series [3] can be described thus: Selectivity index, ratio of CC50 for African green monkey Vero cells infected with eGPF-labeled DENV2 16681 to EC50 for DENV2 16681 expressing eGPF infected in African green monkey Vero cells.

The structures appear in SMILES notation. Where only a bound is given, the exact number is not on record here.

As to `COc1cc(NC(C(=O)c2c[nH]c3cc(F)c(C)cc23)c2ccc(Cl)cc2OC)cc(S(C)(=O)=O)c1` (single isomer, unassigned; enantiomer 2), a half-maximal effect in series [1] (EC50) was put at 0.2 nM. Also, the CC50 in series [2] was determined as 3200 nM. Further, in series [3], the “Ratio CC50/EC50” value was found to be 18500.

`COc1cc(NC(C(=O)c2c[nH]c3c(C)cc(OC(F)(F)F)cc23)c2ccc(Cl)cc2OC)cc(S(C)(=O)=O)c1` (stereo in doubt; 11A) came in with an EC50 in series [1] of 0.085 nM. For the same compound, the CC50 in series [2] amounted to 2600 nM. For the same compound, the “Ratio CC50/EC50” value in series [3] worked out at 30100.

In turn, `COc1cc(NC(C(=O)c2c[nH]c3cc(OC)c(C)cc23)c2ccc(Cl)cc2OC)cc(S(C)(=O)=O)c1` (single isomer, unassigned) showed an EC50 in series [1] of 0.27 nM. Further, the CC50 in series [2] is 4200 nM. Also, the “Ratio CC50/EC50” value in series [3] came out at 16900.

For the compound `COc1cc(NC(C(=O)c2c[nH]c3ccc(OC(F)(F)F)cc23)c2ccc(Cl)cc2OC)cc(S(C)(=O)=O)c1` (single isomer, unassigned; enantiomer 2), the EC50 in series [1] is 3.8 nM. In addition, the cytotoxic concentration (CC50) in series [2] stood at 6200 nM. Besides, the “Ratio CC50/EC50” value in series [3] was 1480.

On to `COc1cc(NC(C(=O)c2c[nH]c3cc(OC)c(C)cc23)c2ccc(Cl)cc2OC)cc(S(C)(=O)=O)c1` (single isomer, unassigned; enantiomer 2), for which, in series [1], it took 36 nM to reach a half-maximal effect (EC50). The CC50 in series [2] came to 12000 nM. The “Ratio CC50/EC50” value in series [3] is reported as 341.

For the compound `COc1cc(NC(C(=O)c2c[nH]c3cc(F)ccc23)c2ccc(Cl)cc2OC)cc(S(C)(=O)=O)c1` (single isomer, unassigned; enantiomer 2), a half-maximal effect in series [1] (EC50) was put at 12 nM. For the same compound, in series [2], the CC50 amounted to 6500 nM. The “Ratio CC50/EC50” value in series [3] is reported as 530.

On to `COc1cc(NC(C(=O)c2c[nH]c3c(C)c(F)ccc23)c2ccc(Cl)cc2OC)cc(S(C)(=O)=O)c1` (single isomer, unassigned; enantiomer 1), for which, in series [1], the response was half-maximal at 0.26 nM (EC50). For the same compound, the CC50 at 72 h in series [2] stood at 4800 nM. Besides, the “Ratio CC50/EC50” value in series [3] is given as 22000.

In series [1], `COc1cc(NC(C(=O)c2c[nH]c3cc(F)ccc23)c2ccc(Cl)cc2OC)cc(S(C)(=O)=O)c1` (single isomer, unassigned; enantiomer 1) returned a half-maximal effective concentration (EC50) of 0.26 nM. The CC50 in series [2] is 4300 nM. The “Ratio CC50/EC50” value in series [3] amounted to 19700.

The compound `COc1cc(NC(C(=O)c2c[nH]c3ccc(OC(F)(F)F)cc23)c2ccc(Cl)cc2OC)cc(S(C)(=O)=O)c1` (single isomer, unassigned; enantiomer 1) yielded an EC50 in series [1] of 0.067 nM. The CC50 in series [2] is 2900 nM. Further, the “Ratio CC50/EC50” value in series [3] is over 37500.

For `COc1cc(NC(C(=O)c2c[nH]c3c(C)c(F)ccc23)c2ccc(Cl)cc2OC)cc(S(C)(=O)=O)c1` (single isomer, unassigned; enantiomer 2), the EC50 in series [1] amounted to 26 nM. Also, the CC50 in series [2] was found to be 7400 nM. Also, in series [3], the “Ratio CC50/EC50” value was determined as 285.

As to `COc1cc(NC(C(=O)c2c[nH]c3c(C)cc(OC(F)(F)F)cc23)c2ccc(Cl)cc2OC)cc(S(C)(=O)=O)c1` (single isomer, unassigned; enantiomer 2), the EC50 in series [1] was found to be 4.1 nM. Moreover, the CC50 in series [2] came to 9200 nM. The “Ratio CC50/EC50” value in series [3] was 22200.

`COc1cc(NC(C(=O)c2c[nH]c3cc(F)ccc23)c2ccc(Cl)cc2OC)cc(S(C)(=O)=O)c1` (racemic) yielded a concentration for a half-maximal effect (EC50) in series [1] of 0.52 nM. The CC50 at 72 h in series [2] turned out to be 5500 nM. Besides, in series [3], the “Ratio CC50/EC50” value was found to be 11500.

`COc1cc(NC(C(=O)c2c[nH]c3cc(F)c(C)cc23)c2ccc(Cl)cc2OC)cc(S(C)(=O)=O)c1` (single isomer, unassigned; enantiomer 1): a half-maximal effect in series [1] (EC50) was put at 13 nM. In addition, the CC50 in series [2] amounted to 6800 nM. In addition, in series [3], the “Ratio CC50/EC50” value was 538.

For orientation: EC50 means the concentration needed to bring the measured effect to its halfway point. One may read the CC50 as the concentration that lowers cell viability or growth by half.
